Measurements from the NIST ThermoML archive (doi:10.1021/acs.jced.8b00008).
Numbers after ± are expanded uncertainties.

Assay: xn = mol fraction of the nth substance listed
Details: for viscosity / speed of sound / mass density: 102 kPa, Liquid; for viscosity: Concentric cylinders viscometry; for speed of sound: Single path-length method; for mass density: Vibrating tube method; for surface tension liquid-gas: 294 K, Pendant drop shape

CCC1CCCCC1 [ethylcyclohexane] + CCCCCCCCCCCC
viscosity (293.15 K, x1 = 0.1): 1.43 ± 0.01 mPa·s | viscosity (293.15 K, x1 = 0.216): 1.34 ± 0.01 mPa·s | viscosity (293.15 K, x1 = 0.2999): 1.3 ± 0.01 mPa·s | viscosity (293.15 K, x1 = 0.4): 1.22 ± 0.01 mPa·s | viscosity (293.15 K, x1 = 0.5): 1.16 ± 0.01 mPa·s | viscosity (293.15 K, x1 = 0.5999): 1.13 ± 0.01 mPa·s | viscosity (293.15 K, x1 = 0.7): 1.07 ± 0.01 mPa·s | viscosity (293.15 K, x1 = 0.8): 0.998 ± 0.012 mPa·s | viscosity (293.15 K, x1 = 0.9): 0.932 ± 0.012 mPa·s | speed of sound (293.15 K, x1 = 0.1): 1296.6 ± 0.6 m/s | speed of sound (293.15 K, x1 = 0.216): 1295.2 ± 0.6 m/s | speed of sound (293.15 K, x1 = 0.2999): 1294.3 ± 0.6 m/s | speed of sound (293.15 K, x1 = 0.4): 1293.4 ± 0.6 m/s | speed of sound (293.15 K, x1 = 0.5): 1292.4 ± 0.6 m/s | speed of sound (293.15 K, x1 = 0.5999): 1291.8 ± 0.6 m/s | speed of sound (293.15 K, x1 = 0.7): 1291.3 ± 0.5 m/s | speed of sound (293.15 K, x1 = 0.8): 1291.2 ± 0.5 m/s | speed of sound (293.15 K, x1 = 0.9): 1291.7 ± 0.5 m/s | mass density (293.15 K, x1 = 0.1): 751.13 ± 0.7 kg/m3 | mass density (293.15 K, x1 = 0.216): 754.22 ± 0.7 kg/m3 | mass density (293.15 K, x1 = 0.2999): 756.65 ± 0.7 kg/m3 | mass density (293.15 K, x1 = 0.4): 759.77 ± 0.7 kg/m3 | mass density (293.15 K, x1 = 0.5): 763.3 ± 0.7 kg/m3 | mass density (293.15 K, x1 = 0.5999): 767.13 ± 0.7 kg/m3 | mass density (293.15 K, x1 = 0.7): 771.4 ± 0.7 kg/m3 | mass density (293.15 K, x1 = 0.8): 776.25 ± 0.7 kg/m3 | mass density (293.15 K, x1 = 0.9): 781.76 ± 0.7 kg/m3 | surface tension liquid-gas (x1 = 0.216): 25.1 ± 0.3 mN/m | surface tension liquid-gas (x1 = 0.2999): 25.1 ± 0.3 mN/m | surface tension liquid-gas (x1 = 0.4): 25.1 ± 0.3 mN/m | surface tension liquid-gas (x1 = 0.5): 25.1 ± 0.3 mN/m | surface tension liquid-gas (x1 = 0.5999): 25.2 ± 0.3 mN/m | surface tension liquid-gas (x1 = 0.8): 25.2 ± 0.3 mN/m | viscosity (303.15 K, x1 = 0.1): 1.2 ± 0.01 mPa·s | viscosity (303.15 K, x1 = 0.216): 1.15 ± 0.01 mPa·s | viscosity (303.15 K, x1 = 0.2999): 1.1 ± 0.01 mPa·s | viscosity (303.15 K, x1 = 0.4): 1.04 ± 0.01 mPa·s | viscosity (303.15 K, x1 = 0.5): 0.966 ± 0.021 mPa·s | viscosity (303.15 K, x1 = 0.5999): 0.934 ± 0.012 mPa·s | viscosity (303.15 K, x1 = 0.7): 0.887 ± 0.012 mPa·s | viscosity (303.15 K, x1 = 0.8): 0.832 ± 0.012 mPa·s | viscosity (303.15 K, x1 = 0.9): 0.782 ± 0.012 mPa·s | speed of sound (303.15 K, x1 = 0.1): 1257.8 ± 0.6 m/s | speed of sound (303.15 K, x1 = 0.216): 1256.6 ± 0.6 m/s | speed of sound (303.15 K, x1 = 0.2999): 1255.1 ± 0.6 m/s | speed of sound (303.15 K, x1 = 0.4): 1254 ± 0.6 m/s | speed of sound (303.15 K, x1 = 0.5): 1253.1 ± 0.6 m/s | speed of sound (303.15 K, x1 = 0.5999): 1251.7 ± 0.6 m/s | speed of sound (303.15 K, x1 = 0.7): 1250.7 ± 0.5 m/s | speed of sound (303.15 K, x1 = 0.8): 1250 ± 0.5 m/s | speed of sound (303.15 K, x1 = 0.9): 1249.7 ± 0.5 m/s | mass density (303.15 K, x1 = 0.1): 743.84 ± 0.7 kg/m3 | mass density (303.15 K, x1 = 0.216): 746.88 ± 0.7 kg/m3 | mass density (303.15 K, x1 = 0.2999): 749.28 ± 0.7 kg/m3 | mass density (303.15 K, x1 = 0.4): 752.35 ± 0.7 kg/m3 | mass density (303.15 K, x1 = 0.5): 755.8 ± 0.7 kg/m3 | mass density (303.15 K, x1 = 0.5999): 759.56 ± 0.7 kg/m3 | mass density (303.15 K, x1 = 0.7): 763.73 ± 0.7 kg/m3 | mass density (303.15 K, x1 = 0.8): 768.48 ± 0.7 kg/m3 | mass density (303.15 K, x1 = 0.9): 773.85 ± 0.7 kg/m3 | viscosity (313.15 K, x1 = 0.1): 1.02 ± 0.01 mPa·s | viscosity (313.15 K, x1 = 0.216): 0.973 ± 0.012 mPa·s | viscosity (313.15 K, x1 = 0.2999): 0.939 ± 0.012 mPa·s | viscosity (313.15 K, x1 = 0.4): 0.899 ± 0.012 mPa·s | viscosity (313.15 K, x1 = 0.5): 0.876 ± 0.021 mPa·s | viscosity (313.15 K, x1 = 0.5999): 0.85 ± 0.012 mPa·s | viscosity (313.15 K, x1 = 0.7): 0.789 ± 0.012 mPa·s | viscosity (313.15 K, x1 = 0.8): 0.743 ± 0.012 mPa·s | viscosity (313.15 K, x1 = 0.9): 0.698 ± 0.011 mPa·s | speed of sound (313.15 K, x1 = 0.1): 1219.8 ± 0.6 m/s | speed of sound (313.15 K, x1 = 0.216): 1218.6 ± 0.6 m/s | speed of sound (313.15 K, x1 = 0.2999): 1216.7 ± 0.6 m/s | speed of sound (313.15 K, x1 = 0.4): 1215.3 ± 0.6 m/s | speed of sound (313.15 K, x1 = 0.5): 1214.3 ± 0.6 m/s | speed of sound (313.15 K, x1 = 0.5999): 1212.4 ± 0.6 m/s | speed of sound (313.15 K, x1 = 0.7): 1210.9 ± 0.5 m/s | speed of sound (313.15 K, x1 = 0.8): 1209.6 ± 0.5 m/s | speed of sound (313.15 K, x1 = 0.9): 1208.6 ± 0.5 m/s | mass density (313.15 K, x1 = 0.1): 736.53 ± 0.7 kg/m3 | mass density (313.15 K, x1 = 0.216): 739.51 ± 0.7 kg/m3 | mass density (313.15 K, x1 = 0.2999): 741.87 ± 0.7 kg/m3 | mass density (313.15 K, x1 = 0.4): 744.89 ± 0.7 kg/m3 | mass density (313.15 K, x1 = 0.5): 748.26 ± 0.7 kg/m3 | mass density (313.15 K, x1 = 0.5999): 751.95 ± 0.7 kg/m3 | mass density (313.15 K, x1 = 0.7): 756.03 ± 0.7 kg/m3 | mass density (313.15 K, x1 = 0.8): 760.66 ± 0.7 kg/m3 | mass density (313.15 K, x1 = 0.9): 765.89 ± 0.7 kg/m3 | viscosity (323.15 K, x1 = 0.1): 0.893 ± 0.012 mPa·s | viscosity (323.15 K, x1 = 0.216): 0.858 ± 0.012 mPa·s | viscosity (323.15 K, x1 = 0.2999): 0.823 ± 0.012 mPa·s | viscosity (323.15 K, x1 = 0.4): 0.79 ± 0.012 mPa·s | viscosity (323.15 K, x1 = 0.5): 0.759 ± 0.012 mPa·s | viscosity (323.15 K, x1 = 0.5999): 0.718 ± 0.011 mPa·s | viscosity (323.15 K, x1 = 0.7): 0.686 ± 0.011 mPa·s | viscosity (323.15 K, x1 = 0.8): 0.646 ± 0.011 mPa·s | viscosity (323.15 K, x1 = 0.9): 0.614 ± 0.011 mPa·s | speed of sound (323.15 K, x1 = 0.1): 1182.5 ± 0.6 m/s | speed of sound (323.15 K, x1 = 0.216): 1181.1 ± 0.6 m/s | speed of sound (323.15 K, x1 = 0.2999): 1179 ± 0.6 m/s | speed of sound (323.15 K, x1 = 0.4): 1177.4 ± 0.6 m/s | speed of sound (323.15 K, x1 = 0.5): 1176.1 ± 0.6 m/s | speed of sound (323.15 K, x1 = 0.5999): 1173.8 ± 0.6 m/s | speed of sound (323.15 K, x1 = 0.7): 1171.9 ± 0.5 m/s | speed of sound (323.15 K, x1 = 0.8): 1170 ± 0.5 m/s | speed of sound (323.15 K, x1 = 0.9): 1168.3 ± 0.5 m/s | mass density (323.15 K, x1 = 0.1): 729.18 ± 0.7 kg/m3 | mass density (323.15 K, x1 = 0.216): 732.1 ± 0.7 kg/m3 | mass density (323.15 K, x1 = 0.2999): 734.42 ± 0.7 kg/m3 | mass density (323.15 K, x1 = 0.4): 737.38 ± 0.7 kg/m3 | mass density (323.15 K, x1 = 0.5): 740.68 ± 0.7 kg/m3 | mass density (323.15 K, x1 = 0.5999): 744.29 ± 0.7 kg/m3 | mass density (323.15 K, x1 = 0.7): 748.27 ± 0.7 kg/m3 | mass density (323.15 K, x1 = 0.8): 752.78 ± 0.7 kg/m3 | mass density (323.15 K, x1 = 0.9): 757.88 ± 0.7 kg/m3 | viscosity (333.15 K, x1 = 0.1): 0.769 ± 0.012 mPa·s | viscosity (333.15 K, x1 = 0.216): 0.757 ± 0.012 mPa·s | viscosity (333.15 K, x1 = 0.2999): 0.713 ± 0.012 mPa·s | viscosity (333.15 K, x1 = 0.4): 0.685 ± 0.011 mPa·s | viscosity (333.15 K, x1 = 0.5): 0.667 ± 0.021 mPa·s | viscosity (333.15 K, x1 = 0.5999): 0.627 ± 0.011 mPa·s | viscosity (333.15 K, x1 = 0.7): 0.601 ± 0.011 mPa·s | viscosity (333.15 K, x1 = 0.8): 0.567 ± 0.011 mPa·s | viscosity (333.15 K, x1 = 0.9): 0.537 ± 0.011 mPa·s | speed of sound (333.15 K, x1 = 0.1): 1146.2 ± 0.6 m/s | speed of sound (333.15 K, x1 = 0.216): 1144.3 ± 0.6 m/s | speed of sound (333.15 K, x1 = 0.2999): 1142.1 ± 0.6 m/s | speed of sound (333.15 K, x1 = 0.4): 1140.5 ± 0.6 m/s | speed of sound (333.15 K, x1 = 0.5): 1138.6 ± 0.6 m/s | speed of sound (333.15 K, x1 = 0.5999): 1136.2 ± 0.6 m/s | speed of sound (333.15 K, x1 = 0.7): 1133.9 ± 0.6 m/s | speed of sound (333.15 K, x1 = 0.8): 1131.3 ± 0.6 m/s | speed of sound (333.15 K, x1 = 0.9): 1128.9 ± 0.5 m/s | mass density (333.15 K, x1 = 0.1): 721.79 ± 0.7 kg/m3 | mass density (333.15 K, x1 = 0.216): 724.65 ± 0.7 kg/m3 | mass density (333.15 K, x1 = 0.2999): 726.93 ± 0.7 kg/m3 | mass density (333.15 K, x1 = 0.4): 729.83 ± 0.7 kg/m3 | mass density (333.15 K, x1 = 0.5): 733.05 ± 0.7 kg/m3 | mass density (333.15 K, x1 = 0.5999): 736.58 ± 0.7 kg/m3 | mass density (333.15 K, x1 = 0.7): 740.46 ± 0.7 kg/m3 | mass density (333.15 K, x1 = 0.8): 744.85 ± 0.7 kg/m3 | mass density (333.15 K, x1 = 0.9): 749.79 ± 0.7 kg/m3
